# Results as given in patent publication US8404643B2, “Metastin derivatives and use thereof” (priority 2005, dated 2013).
# Square brackets hold non-standard residues; d marks the D form. Peptide text beside a SMILES is read from it. Phe(4-Cl) = N[C@@H](Cc1ccc(Cl)cc1)C(=O)O; Phe(3-F) = N[C@@H](Cc1cccc(F)c1)C(=O)O; Phe(4-F) = N[C@@H](Cc1ccc(F)cc1)C(=O)O; Phe(2-F) = N[C@@H](Cc1ccccc1F)C(=O)O; Arg(Me) = CNC(=N)NCCC[C@H](N)C(=O)O; cisHyp = O=C(O)[C@@H]1C[C@H](O)CN1; Hyp = O=C(O)[C@@H]1C[C@@H](O)CN1; dNMeA = CN[C@H](C)C(=O)O; azaGly = NNC(=O)O; βAla = NCCC(=O)O
# Target: T1, hOT7T175 (Homo sapiens, UniProt Q969F8)
# T1 construct: expressed in transfected cells
# T1 sequence (Q969F8 whole entry L364H): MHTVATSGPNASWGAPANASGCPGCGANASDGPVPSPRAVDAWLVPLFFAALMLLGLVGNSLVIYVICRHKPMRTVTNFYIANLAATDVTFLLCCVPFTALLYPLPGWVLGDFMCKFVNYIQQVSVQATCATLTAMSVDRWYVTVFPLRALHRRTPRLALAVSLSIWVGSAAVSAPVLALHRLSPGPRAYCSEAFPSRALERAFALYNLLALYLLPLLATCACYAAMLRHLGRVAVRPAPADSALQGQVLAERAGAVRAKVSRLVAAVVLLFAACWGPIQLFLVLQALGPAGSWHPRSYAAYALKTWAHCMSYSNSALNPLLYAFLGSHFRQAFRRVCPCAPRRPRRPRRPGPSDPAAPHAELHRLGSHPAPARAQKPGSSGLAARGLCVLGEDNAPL
# Assay: Assay for intracellular Ca ion level-increasing activity using FLIPR
# Format: cell-based
# Settings: hOT7T175/CHO cells, relative to Metastin (1-54)
# Description: In accordance with the method described in JPA 2000-312590, the intracellular Ca ion level-increasing activity was measured using FLIPR.
# The stable expression cell line hOT7T175 was obtained by transfection of the expression plasmid pAK-rOT175 for animal cells into CHO/dhfr^− cells, using CellPhect Transfection Kit (Amersham Pharmacia Biotech, Inc.). First, 240 μL of Buffer A (attached to CellPhect Transfection Kit) was added to 9.6 μg of plasmid DNA dissolved in 240 μL of distilled water followed by stirring. After the mixture was settled for 10 minutes, 480 μL of Buffer B (attached to CellPhect Transfection Kit) was added to the mixture, which was vigorously stirred to form liposomes containing the DNA. Then, 4×10^5 CHO/dhfr^− cells (obtained from ATCC) were inoculated on a 60 mm Petri dish. After culturing the cells in Ham's F-12 medium (Nissui Seiyaku Co., Ltd.) supplemented with 10% fetal bovine serum (BIO WHITTAKER, Inc.) at 37° C. for 2 days in 5% carbon dioxide gas, […] of the liposomes were dropwise added to the cells on the Petri dish. After culturing the cells at 37° C. for 6 hours in 5% carbon dioxide gas, the cells were washed twice with serum-free Ham's F-12 medium and 3 mL of 15% glycerol was added to the cells on the Petri dish followed by treatment for 2 minutes. The cells were again washed twice with serum-free Ham's F-12 medium followed by incubation in Ham's F-12 medium supplemented with 10% fetal bovine serum at 37° C. for 15 hours in 5% carbon dioxide gas. The cells were dispersed by trypsin treatment to recover from the Petri dish. The recovered cells were inoculated on a 6-well plate in 1.25×10^4 cells/well and incubation was initiated at 37° C. in Dulbecco's modified Eagle medium (DMEM) medium (Nissui Seiyaku Co., Ltd.) containing 10% dialyzed fetal bovine serum (JRH BIOSCIENCES, Inc.) in 5% carbon dioxide gas. The plasmid-transfected CHO transformants grew in the medium but the non-transfected cells gradually died, accordingly the medium was exchanged on Days 1 and 2 after the initiation of incubation to remove the cells died. Approximately 20 colonies of the CHO transformants that kept growing on Days 8 to 10 after the incubation were isolated. From the cells in these colonies, cells showing high reactivity with the ligand peptide metastin (hereinafter merely referred to as hOT7T175/CHO) were selected to provide for the following experiment.
# The intracellular Ca ion level-increasing activity of the synthetic peptide in hOT7T175/CHO was determined using FLIPR (Molecular Devices, Inc.).
# hOT7T175/CHO was subcultured in DMEM supplemented with 10% dialyzed fetal bovine serum (hereinafter abbreviated as dFBS) (hereinafter referred to as 10% dFBS/DMEM) and provided for the experiment. The hOT7T175/CHO was suspended in 10% dFBS-DMEM in 15×10^4 cells/ml. The suspension was inoculated on a 96-well plate for FLIPR (Black Plate Clear Bottom, Coster, Inc.) at 200 μl/well (3.0×10^4 cells/200 μL/well), followed by incubation at 37° C. overnight in a 5% CO2 incubator (hereinafter referred to as the cell plate). Then, 21 ml of HANKS/HBSS (9.8 g of HANKS, 0.35 g of sodium hydrogencarbonate, 20 ml of 1M HEPES; after adjusting the pH to 7.4 with 1N sodium hydroxide, the mixture was sterilized by filtration), 210 μl of 250 mM Probenecid and 210 μl of fetal bovine serum (FBS) (HANKS/HBSS-Probenecid-FBS) were mixed.
# Furthermore, 2 vials of Fluo3-AM (50 μg/vial) were dissolved in 21 μL of dimethylsulfoxide and 21 μL of 20% Pluronic acid. The resulting solution was added to and mixed with 10 ml of the HANKS/HBSS-Probenecid-FBS described above. After the culture medium was removed, the mixture was dispensed onto the cell plate in 100 μl each/well, followed by incubation at 37° C. for an hour in a 5% CO2 incubator (pigment loading). The peptide was dissolved in dimethylsulfoxide in 1×10^−3 M. The peptide solution was diluted with HANKS/HBSS containing 2.5 mM Probenecid, 0.2% BSA and 0.1% CHAPS. […]
row,Specific Activity: intracellular Ca ion level-increasing activity [specific activity to Metastin (1-54)],Structure (SMILES)
1,2.3,"CNC(=N)NCCC[C@H](NC(=O)[C@H](CC(C)C)NC(=O)NNC(=O)[C@@H](Cc1ccccc1)NC(=O)[C@@H](NC(=O)[C@H](CC(N)=O)NC(=O)[C@@H]1C[C@@H](O)CN1C(=O)[C@@H](Cc1ccc(O)cc1)NC(C)=O)[C@@H](C)O)C(=O)N[C@@H](Cc1c[nH]c2ccccc12)C(N)=O [Compound No. 794, Ac-D-Tyr-Hyp-Asn-Thr-D-Phe-AzaGly-Leu-Arg(Me)-Trp-NH2] (Ac-[dY][Hyp]NT[dF][azaGly]L[Arg(Me)]W-NH2)"
2,12.8,"CC(=O)N[C@H](Cc1ccc(O)cc1)C(=O)N[C@H](Cc1c[nH]c2ccccc12)C(=O)N[C@@H](CC(N)=O)C(=O)N[C@H](C(=O)N[C@@H](Cc1ccccc1)C(=O)NNC(=O)N[C@@H](CC(C)C)C(=O)N[C@H](CCCNC(=N)N)C(=O)N[C@@H](Cc1c[nH]c2ccccc12)C(N)=O)[C@@H](C)O [Compound No. 708, Ac-D-Tyr-D-Trp-Asn-Thr-Phe-AzaGly-Leu-D-Arg-Trp-NH2] (Ac-[dY][dW]NTF[azaGly]L[dR]W-NH2)"
3,3.1,"CNC(=N)NCCC[C@H](NC(=O)[C@H](CC(C)C)NC(=O)NNC(=O)[C@H](Cc1ccccc1)NC(=O)[C@@H](NC(=O)[C@H](CC(N)=O)NC(=O)CNC(=O)[C@@H](Cc1ccc(O)cc1)NC(C)=O)[C@@H](C)O)C(=O)N[C@@H](Cc1c[nH]c2ccccc12)C(N)=O [Compound No. 726, Ac-D-Tyr-Gly-Asn-Thr-Phe-AzaGly-Leu-Arg(Me)-Trp-NH2] (Ac-[dY]GNTF[azaGly]L[Arg(Me)]W-NH2)"
4,0.5,"CNC(=N)NCCC[C@H](NC(=O)[C@H](CC(C)C)NC(=O)NNC(=O)[C@H](Cc1ccccc1F)NC(=O)[C@@H](NC(=O)[C@H](CC(N)=O)NC(=O)[C@@H](Cc1c[nH]c2ccccc12)NC(=O)[C@@H](Cc1ccc(O)cc1)NC(C)=O)[C@@H](C)O)C(=O)N[C@@H](Cc1c[nH]c2ccccc12)C(N)=O [Compound No. 749, Ac-D-Tyr-D-Trp-Asn-Thr-Phe(2F)-AzaGly-Leu-Arg(Me)-Trp-NH2] (Ac-[dY][dW]NT[Phe(2-F)][azaGly]L[Arg(Me)]W-NH2)"

# Further lines, the compound ahead of its results:
row,Structure (SMILES),Specific Activity: intracellular Ca ion level-increasing activity [specific activity to Metastin (1-54)]
1,"CNC(=N)NCCC[C@H](NC(=O)[C@H](CC(C)C)NC(=O)NNC(=O)[C@H](Cc1ccccc1)NC(=O)[C@@H](NC(=O)[C@H](CC(N)=O)NC(=O)[C@@H]1C[C@H](O)CN1C(=O)[C@@H](Cc1ccc(O)cc1)NC(C)=O)[C@@H](C)O)C(=O)N[C@@H](Cc1c[nH]c2ccccc12)C(N)=O [Compound No. 896, Ac-D-Tyr-cisHyp-Asn-Thr-Phe-AzaGly-Leu-Arg(Me)-Trp-NH2] (Ac-[dY][cisHyp]NTF[azaGly]L[Arg(Me)]W-NH2)",0.6
2,"CNC(=N)NCCC[C@H](NC(=O)[C@H](CC(C)C)NC(=O)NNC(=O)[C@H](Cc1ccccc1)NC(=O)[C@@H](NC(=O)[C@H](CC(N)=O)NC(=O)[C@@H](C)N(C)C(=O)[C@@H](Cc1ccc(O)cc1)NC(C)=O)[C@@H](C)O)C(=O)N[C@@H](Cc1c[nH]c2ccccc12)C(N)=O [Compound No. 732, Ac-D-Tyr-D-NMeAla-Asn-Thr-Phe-AzaGly-Leu-Arg(Me)-Trp-NH2] (Ac-[dY][dNMeA]NTF[azaGly]L[Arg(Me)]W-NH2)",3.2
3,"CNC(=N)NCCC[C@H](NC(=O)[C@H](CC(C)C)NC(=O)NNC(=O)[C@H](Cc1ccccc1)NC(=O)[C@@H](C)NC(=O)[C@H](CC(N)=O)NC(=O)[C@@H]1C[C@@H](O)CN1C(=O)[C@@H](Cc1ccc(O)cc1)NC(C)=O)C(=O)N[C@@H](Cc1c[nH]c2ccccc12)C(N)=O [Compound No. 815, Ac-D-Tyr-Hyp-Asn-D-Ala-Phe-AzaGly-Leu-Arg(Me)-Trp-NH2] (Ac-[dY][Hyp]N[dA]F[azaGly]L[Arg(Me)]W-NH2)",0.5
4,"CNC(=N)NCCC[C@H](NC(=O)[C@H](CC(C)C)NC(=O)NNC(=O)[C@H](Cc1ccccc1)NC(=O)[C@@H](NC(=O)[C@H](CC(N)=O)NC(=O)CCNC(=O)[C@@H](Cc1ccc(O)cc1)NC(C)=O)[C@@H](C)O)C(=O)N[C@@H](Cc1c[nH]c2ccccc12)C(N)=O [Compound No. 747, Ac-D-Tyr-β-Ala-Asn-Thr-Phe-AzaGly-Leu-Arg(Me)-Trp-NH2] (Ac-[dY][βAla]NTF[azaGly]L[Arg(Me)]W-NH2)",2.6
5,"CNC(=N)NCCC[C@H](NC(=O)[C@H](CC(C)C)NC(=O)NNC(=O)[C@H](Cc1ccc(Cl)cc1)NC(=O)[C@@H](NC(=O)[C@H](CC(N)=O)NC(=O)CNC(=O)[C@@H](Cc1ccc(O)cc1)NC(C)=O)[C@@H](C)O)C(=O)N[C@@H](Cc1c[nH]c2ccccc12)C(N)=O [Compound No. 769, Ac-D-Tyr-Gly-Asn-Thr-Phe(4Cl)-AzaGly-Leu-Arg(Me)-Trp-NH2] (Ac-[dY]GNT[Phe(4-Cl)][azaGly]L[Arg(Me)]W-NH2)",1.5
6,"CNC(=N)NCCC[C@H](NC(=O)[C@H](CC(C)C)NC(=O)NNC(=O)[C@H](Cc1ccccc1)NC(=O)[C@@H](NC(=O)[C@H](CCCNC(=N)N)NC(=O)[C@@H]1C[C@@H](O)CN1C(=O)[C@@H](Cc1ccc(O)cc1)NC(C)=O)[C@@H](C)O)C(=O)N[C@@H](Cc1c[nH]c2ccccc12)C(N)=O [Compound No. 861, Ac-D-Tyr-Hyp-Arg-Thr-Phe-AzaGly-Leu-Arg(Me)-Trp-NH2] (Ac-[dY][Hyp]RTF[azaGly]L[Arg(Me)]W-NH2)",1.4
7,"CNC(=N)NCCC[C@H](NC(=O)[C@H](CC(C)C)NC(=O)NNC(=O)[C@H](Cc1ccccc1)NC(=O)[C@@H](NC(=O)[C@H](CC(N)=O)NC(=O)[C@H](CO)NC(=O)[C@@H](Cc1ccc(O)cc1)NC(C)=O)[C@@H](C)O)C(=O)N[C@@H](Cc1c[nH]c2ccccc12)C(N)=O [Compound No. 744, Ac-D-Tyr-Ser-Asn-Thr-Phe-AzaGly-Leu-Arg(Me)-Trp-NH2] (Ac-[dY]SNTF[azaGly]L[Arg(Me)]W-NH2)",2.4
8,"CNC(=N)NCCC[C@H](NC(=O)[C@H](CC(C)C)NC(=O)NNC(=O)[C@H](Cc1cccc(F)c1)NC(=O)[C@@H](NC(=O)[C@H](CC(N)=O)NC(=O)[C@H](Cc1c[nH]c2ccccc12)NC(=O)[C@@H](Cc1ccc(O)cc1)NC(C)=O)[C@@H](C)O)C(=O)N[C@@H](Cc1c[nH]c2ccccc12)C(N)=O [Compound No. 766, Ac-D-Tyr-Trp-Asn-Thr-Phe(3F)-AzaGly-Leu-Arg(Me)-Trp-NH2] (Ac-[dY]WNT[Phe(3-F)][azaGly]L[Arg(Me)]W-NH2)",0.2
9,"CNC(=N)NCCC[C@H](NC(=O)[C@H](CC(C)C)NC(=O)NNC(=O)[C@H](Cc1ccc(F)cc1)NC(=O)[C@@H](NC(=O)[C@H](CC(N)=O)NC(=O)CNC(=O)[C@@H](Cc1ccc(O)cc1)NC(C)=O)[C@@H](C)O)C(=O)N[C@@H](Cc1c[nH]c2ccccc12)C(N)=O [Compound No. 790, Ac-D-Tyr-Gly-Asn-Thr-Phe(4F)-AzaGly-Leu-Arg(Me)-Trp-NH2] (Ac-[dY]GNT[Phe(4-F)][azaGly]L[Arg(Me)]W-NH2)",2.3
